The source of these data is article PMC7835349 (Communications Biology, 2021).

Data set [1] is described as follows: Plasma protein binding (unbound fraction). Type of data set: in vitro ADME. Conditions: pre-clinical species and human, across pre-clinical species and man.
The test system of data set [2] is tumours. In words: Formulation dependent efficacy of AZD4320 (Fig S2a). Type of data set: in vivo. Conditions: single 5mg/kg IV bolus. On the procedure: Supplementary Figure 2. Formulation dependent efficacy of AZD4320 (a) A single 5mg/kg
IV bolus dose of AZD4320 formulated in 30% hydroxypropyl-β-cyclodextrin (HP-β-CD)
Data in the graphs are represented as mean tumor volume
± SEM (n=5). […]
(1 picture or pasted object on this page, not shown here)

A short description of data set [3]: in vivo. Conditions: beagle, dog.

Molecules are shown by their SMILES.

In the case of `CN(CCO)CCC(CSc1ccccc1)Nc1ccc(S(=O)(=O)NC(=O)c2ccc(N3CCC(C(O)c4ccccc4-c4ccc(Cl)cc4)CC3)cc2)cc1S(=O)(=O)C(F)(F)F` (stereo not shown) [AZD4320], in data set [1], the fraction unbound was < 3e-05. Moreover, the “efficacy” value in data set [2] (formulated in 0.5% Tween 80) is “no efficacy”; in data set [2] (formulated in 30% hydroxypropyl-β-cyclodextrin), “complete regression of the tumours”. Further, the MTD at 48 h in data set [3] is < 3 mg/kg.
